Calls of active or inactive are those of the source.
Assays:
HCT-116 [1] = assay: Antitumor activity against human HCT-116 cells xenografted in BALB/c mouse assessed as reduction in tumor weight at 60 mg/kg,ip administrated daily for 14 days; type: functional, organism-based; conditions: time 14.0 day
HCT-116 [2] = assay: Cytotoxicity against human HCT-116 cells assessed as inhibition of cell growth incubated for 12 hrs by CCK-8 assay; type: functional, cell-based; conditions: HCT-116, 12 h
HCT-116 [3] = assay: Induction of ferritin autophagy in human HCT-116 cells assessed as upregulation of NCOA4 protein expression at 5 to 20 uM incubated for 12 hrs by Western blotting analysis; type: functional, cell-based; conditions: dose 5-20 µM
[4] = Toxicity in BALB/c mouse xenografted with human HCT-116 cells assessed as histopathological changes in lung at 60 mg/kg,ip administrated daily for 14 days by hematoxylin and eosin staining based microscopic analysis; type: organism-based; conditions: in vivo, 336 h, time 14 day
HCT-116 [5] = assay: Cytotoxicity against human HCT-116 cells assessed as inhibition of cell growth incubated for 24 hrs by CCK-8 assay; type: functional, cell-based; conditions: HCT-116, 24 h
HCT-116 [6] = assay: Inhibition of colony formation in human HCT-116 cells incubated for 12 hrs by crystal violet staining based analysis; type: functional, cell-based
HCT-116 [7] = assay: Antiproliferative activity against human HCT-116 cells assessed as reduction in number of EdU-positive cell at 5 to 20 uM incubated for 9 hrs by Edu staining based analysis; type: functional; conditions: dose 5-20 µM
HCT-116 [8] = assay: Induction of autophagy in human HCT-116 cells assessed as formation of autophagosomes at 20 uM incubated for 12 hrs in presence of Bafilomycin A1 by confocal microscopic analysis; type: functional, cell-based
HCT-116 [9] = assay: Antitumor activity against human HCT-116 cells xenografted in BALB/c mouse assessed as presence of pyknotic nucleus at 30 mg/kg,ip administrated daily for 14 days by hematoxylin and eosin staining based microscopic analysis; type: functional, organism-based; conditions: time 14.0 day
HCT-116 [10] = assay: Induction of ROS production in human HCT-116 cells incubated for 12 hrs by DCFH-DA probe based flow cytometry; type: functional, cell-based
HCT-116 [11] = assay: Induction of autophagy in human HCT-116 cells transfected with mRFP-GFP-LC3B assessed as formation of autophagosomes by measuring reduction in GFP to mRFP fluorescence ratio at 5 to 20 uM incubated for 12 hrs by Lyso tracker red staining based confocal fluorescence microscopic analysis; type: functional, cell-based; conditions: dose 5-20 µM
HCT-116 [12] = assay: Antitumor activity against human HCT-116 cells xenografted in BALB/c mouse assessed as increase in FTH1 expression at 60 mg/kg,ip administrated daily for 14 days by immunohistochemistry; type: functional, organism-based; conditions: time 14.0 day
HCT-116 [13] = assay: Induction of ferroptosis in human HCT-116 cells assessed as increase in intracellular lipid ROS accumulation at 5 to 20 uM incubated for 12 hrs by C11 BODIPY probe based flow cytometry; type: functional, cell-based; conditions: dose 5-20 µM
HCT-116 [14] = assay: Induction of autophagy in human HCT-116 cells assessed as increase in intracellular ferrous ion level at 20 uM incubated for 12 hrs by Lyso tracker green staining based confocal microscopic analysis; type: functional, cell-based
HCT-116 [15] = assay: Induction of […] ROS production in human HCT-116 cells incubated for 12 hrs by DCFH-DA probe based flow cytometry; type: functional, cell-based
HCT-116 [16] = assay: Induction of ferroptosis in human HCT-116 cells assessed as increase in intracellular ferrous ion level at 20 uM incubated for 12 hrs in presence of ferroptosis inhibitor, deferoxamine mesylate by ferroOrange probe based flow cytometric analysis; type: functional, cell-based
HCT-116 [17] = assay: Induction of autophagy in human HCT-116 cells transfected with mRFP-GFP-LC3B assessed as formation of autolysosomes by measuring reduction in GFP to mRFP fluorescence ratio at 5 to 20 uM incubated for 12 hrs by Lyso tracker red staining based confocal fluorescence microscopic analysis; type: functional, cell-based; conditions: dose 5-20 µM
HCT-116 [18] = assay: Induction of autophagy in human HCT-116 cells assessed as increase in 4-HNE level at 20 uM incubated for 12 hrs in presence of autophagy inhibitor, Bafilomycin A1 by ELISA; type: functional, cell-based
HCT-116 [19] = assay: Induction of ferroptosis in human HCT-116 cells assessed as effect on AIFM2 protein expression at 5 to 20 uM incubated for 12 hrs by Western blotting analysis; type: functional, cell-based; conditions: dose 5-20 µM
HCT-116 [20] = assay: Cytotoxicity against human HCT-116 cells assessed as inhibition of cell growth incubated for 12 to 48 hrs by CCK-8 assay; type: functional, cell-based; conditions: time 12-48 hrs
[21] = Toxicity in BALB/c mouse xenografted with human HCT-116 cells assessed as histopathological changes in heart at 30 mg/kg,ip administrated daily for 14 days by hematoxylin and eosin staining based microscopic analysis; type: organism-based; conditions: in vivo, 336 h, time 14 day
[22] = Cytotoxicity against human NCM460 cells assessed as inhibition of cell growth incubated for 48 hrs by CCK-8 assay; type: toxicity, cell-based
[23] = Toxicity in BALB/c mouse xenografted with human HCT-116 cells assessed as histopathological changes in heart at 60 mg/kg,ip administrated daily for 14 days by hematoxylin and eosin staining based microscopic analysis; type: organism-based; conditions: in vivo, 336 h, time 14 day
HCT-116 [24] = assay: Induction of ferroptosis in human HCT-116 cells assessed as increase in intracellular lipid ROS accumulation at 20 uM incubated for 12 hrs in presence of ferroptosis inhibitor, deferoxamine mesylate by C11 BODIPY probe based flow cytometry; type: functional, cell-based
[25] = Toxicity in BALB/c mouse xenografted with human HCT-116 cells assessed as histopathological changes in kidney at 60 mg/kg,ip administrated daily for 14 days by hematoxylin and eosin staining based microscopic analysis; type: organism-based; conditions: in vivo, 336 h, time 14 day
HCT-116 [26] = assay: Induction of ferroptosis in human HCT-116 cells assessed as increase in ferrous ion level in lysosomes at 20 uM incubated for 12 hrs by Lyso tracker red staining based confocal fluorescence microscopic analysis; type: functional, cell-based
HCT-116 [27] = assay: Antitumor activity against human HCT-116 cells xenografted in BALB/c mouse assessed as reduction in tumor volume at 30 mg/kg,ip administrated daily for 14 days; type: functional, organism-based; conditions: time 14.0 day
HCT-116 [28] = assay: Antitumor activity against human HCT-116 cells xenografted in BALB/c mouse assessed as increase in FTH1 expression at 30 mg/kg,ip administrated daily for 14 days by immunohistochemistry; type: functional, organism-based; conditions: time 14.0 day
HCT-116 [29] = assay: Induction of ferroptosis in human HCT-116 cells assessed as effect on GPX4 protein expression at 5 to 20 uM incubated for 12 hrs by Western blotting analysis; type: functional, cell-based; conditions: dose 5-20 µM
HCT-116 [30] = assay: Antitumor activity against human HCT-116 cells xenografted in BALB/c mouse assessed as tumor cell rupture at 30 mg/kg,ip administrated daily for 14 days by hematoxylin and eosin staining based microscopic analysis; type: functional, organism-based; conditions: time 14.0 day
[31] = Toxicity in BALB/c mouse xenografted with human HCT-116 cells assessed as change in body weight at 60 mg/kg,ip administrated daily for 14 days; type: organism-based; conditions: in vivo, 336 h, time 14 day
[32] = Toxicity in BALB/c mouse xenografted with human HCT-116 cells assessed as histopathological changes in lung at 30 mg/kg,ip administrated daily for 14 days by hematoxylin and eosin staining based microscopic analysis; type: organism-based; conditions: in vivo, 336 h, time 14 day
HCT-116 [33] = assay: Induction of ferroptosis in human HCT-116 cells assessed as effect on SLC7A11 protein expression at 5 to 20 uM incubated for 12 hrs by Western blotting analysis; type: functional, cell-based; conditions: dose 5-20 µM
HCT-116 [34] = assay: Induction of ferroptosis in human HCT-116 cells assessed as increase in 4-HNE level at 20 uM by ELISA; type: functional, cell-based

C=C(Cl)C(=O)NCCCCCCCCCCCC(=O)Oc1c(OC)ccc2c1[C@@]13CCN(C)[C@@H](C2)[C@H]1C=C(OC)C(=O)C3
active: Activity (HCT-116 [1]) | inhibition (HCT-116 [6]) Dose-Dependent Effect | Activity (HCT-116 [7]) | Activity (HCT-116 [9]) | Activity (HCT-116 [10]) | Activity (HCT-116 [11]) | Activity (HCT-116 [12]) | Activity (HCT-116 [13]) | Activity (HCT-116 [14]) | Activity (HCT-116 [15]) | Activity (HCT-116 [17]) | Activity (HCT-116 [20]) Dose-Dependent Effect | Activity (HCT-116 [24]) | Activity (HCT-116 [26]) | Activity (HCT-116 [27]) | Activity (HCT-116 [28]) | Activity (HCT-116 [30]) | Activity (HCT-116 [34])
inactive: Activity (HCT-116 [3]) | Activity (HCT-116 [8]) | Activity (HCT-116 [16]) | Activity (HCT-116 [18]) | Activity (HCT-116 [19]) | Activity (HCT-116 [29]) | Activity (HCT-116 [33])
15.1 µM: IC50 (HCT-116 [2])
19 µM: IC50 at 48 h [22]
11.2 µM: IC50 (HCT-116 [5])
Non-Toxic: Activity [4] | Activity [21] | Activity [23] | Activity [25] | Activity [31] | Activity [32]

Reference: ChEMBL document CHEMBL5505993, “Identification of a ferritinophagy inducer via sinomenine modification for the treatment of colorectal cancer” (Eur J Med Chem, 2024)
